Measured values reported in PubChem BioAssay AID330 (DTP/NCI, 2004).
Several values for one entry are separate records, joined by “and”; a condition that tells them apart may be missing. Equal values may be shown once. Toxic doses and inconclusive results are not listed. Rule for the calls: active = survival T/C of 150% or more; inactive = T/C below 125% in these data.

System: P388 leukemia ip, CD2F1 mice, survival T/C
Test: NCI In Vivo Anticancer Drug Screen. Data for tumor model P388 Leukemia (intraperitoneal) in CD2F1 (CDF1) mice
Conditions: endpoint: median survival time, higher = longer survival
Procedure, shortened: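 Mice carrying the transplanted tumor received test compound or vehicle. Survival was recorded in each group, and the value is the treated-group measurement divided by that of the vehicle-treated control group.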

[1] = dose: 25.0 mg/kg/injection, schedule: Q01DX005 (ip), vehicle: Klucel (hydroxypropylcellulose) (HPC)
[2] = dose: 50.0 mg/kg/injection, schedule: Q01DX005 (ip), vehicle: Klucel (hydroxypropylcellulose) (HPC)
[3] = dose: 100.0 mg/kg/injection, schedule: Q01DX005 (ip), vehicle: Klucel (hydroxypropylcellulose) (HPC)
[4] = dose: 200.0 mg/kg/injection, schedule: Q01DX005 (ip), vehicle: Klucel (hydroxypropylcellulose) (HPC)
[5] = dose: 50.0 mg/kg/injection, schedule: Q01DX009 (ip), vehicle: Klucel (hydroxypropylcellulose) (HPC)
[6] = dose: 100.0 mg/kg/injection, schedule: Q01DX009 (ip), vehicle: Klucel (hydroxypropylcellulose) (HPC)
[7] = dose: 50.0 mg/kg/injection, schedule: Q01DX009 (ip), vehicle: saline with Tween-80
[8] = dose: 100.0 mg/kg/injection, schedule: Q01DX009 (ip), vehicle: saline with Tween-80
[9] = dose: 200.0 mg/kg/injection, schedule: Q01DX009 (ip), vehicle: saline with Tween-80
[10] = dose: 60.0 mg/kg/injection, schedule: Q01DX005 (ip), vehicle: saline with Tween-80
[11] = dose: 120.0 mg/kg/injection, schedule: Q01DX005 (ip), vehicle: saline with Tween-80
[12] = dose: 240.0 mg/kg/injection, schedule: Q01DX005 (ip), vehicle: saline with Tween-80
[13] = dose: 3.12 mg/kg/injection, schedule: Q01DX009 (ip), vehicle: Klucel (hydroxypropylcellulose) (HPC)
[14] = dose: 6.25 mg/kg/injection, schedule: Q01DX009 (ip), vehicle: Klucel (hydroxypropylcellulose) (HPC)
[15] = dose: 12.5 mg/kg/injection, schedule: Q01DX009 (ip), vehicle: Klucel (hydroxypropylcellulose) (HPC)
[16] = dose: 25.0 mg/kg/injection, schedule: Q01DX009 (ip), vehicle: Klucel (hydroxypropylcellulose) (HPC)
[17] = dose: 50.0 mg/kg/injection, schedule: Q01DX009 (ip), vehicle: saline
[18] = dose: 100.0 mg/kg/injection, schedule: Q01DX009 (ip), vehicle: saline
[19] = dose: 200.0 mg/kg/injection, schedule: Q01DX009 (ip), vehicle: saline
[20] = dose: 200.0 mg/kg/injection, schedule: Q01DX009 (ip), vehicle: Klucel (hydroxypropylcellulose) (HPC)
[21] = dose: 12.5 mg/kg/injection, schedule: Q01DX009 (ip), vehicle: saline with Tween-80
[22] = dose: 25.0 mg/kg/injection, schedule: Q01DX009 (ip), vehicle: saline with Tween-80

Measured: T/C

C=CC(=O)OCCCN(CCCC)CCCC
inactive: [1] 100 % of control | [2] 95 % of control | [3] 105 % of control | [4] 105 % of control

O=C1c2cccc3cc([N+](=O)[O-])cc(c23)C(=O)N1CCN1CCN(CCN2C(=O)c3cccc4cc([N+](=O)[O-])cc(c34)C2=O)CC1
inactive: dose: 100.0 mg/kg/injection, schedule: Q04DX002 (ip), vehicle: saline with Tween-80 95 % of control | dose: 200.0 mg/kg/injection, schedule: Q04DX002 (ip), vehicle: saline with Tween-80 98 % of control | dose: 400.0 mg/kg/injection, schedule: Q04DX002 (ip), vehicle: saline with Tween-80 90 % of control

CN(C)CC1CC1C1(C)c2ccccc2Sc2ccccc21 (centres undefined)
inactive: [5] 98 % of control | [6] 95 % of control

C[CH2][Sn]([Cl])([CH2]C)[c]1cc[c]([Sn]([Cl])([CH2]C)[CH2]C)cc1
inactive: dose: 0.02 mg/kg/injection, schedule: Q01DX005 (ip), vehicle: Klucel (hydroxypropylcellulose) (HPC) 118 % of control

Br/N=C1/C=CC=C/C1=N/Br
inactive: dose: 25.0 mg/kg/injection, schedule: Q01DX005 (ip), vehicle: saline 105 % of control and 108 % of control | dose: 50.0 mg/kg/injection, schedule: Q01DX005 (ip), vehicle: saline 107 % of control and 110 % of control | dose: 100.0 mg/kg/injection, schedule: Q01DX005 (ip), vehicle: saline 100 % of control and 107 % of control and 123 % of control | dose: 200.0 mg/kg/injection, schedule: Q01DX005 (ip), vehicle: saline 98 % of control and 100 % of control and 106 % of control

CCc1cc(CC)c(-c2ccco2)c(COC(=O)NC)c1
inactive: [7] 101 % of control | [8] 101 % of control | [9] 106 % of control

N#CC(C(=O)CCCC(=O)Nc1ccc(Cl)cc1)c1ccccc1Cl (centres undefined)
inactive: [10] 113 % of control | [11] 113 % of control | [12] 106 % of control

NCCn1c(-c2ccccc2)nc2ccccc2c1=O
inactive: [2] 100 % of control | [3] 97 % of control | [4] 109 % of control

CC(=O)c1ccc2c(c1)NC(=O)CC(C)N2 (centres undefined)
inactive: [2] 99 % of control | [3] 99 % of control | [4] 103 % of control

O=c1ccs[nH]1
inactive: [13] 100 % of control | [14] 102 % of control and 104 % of control and 117 % of control | [15] 102 % of control and 114 % of control and 124 % of control | [16] 100 % of control and 90 % of control

C#CC(C)OC (centres undefined)
inactive: [17] 96 % of control | [18] 90 % of control | [19] 86 % of control

O=P(O)(O)O.[Cr+3].[NH-]CC[NH-].[NH-]CC[NH-].[NH-]CC[NH-]
inactive: dose: 25.0 mg/kg/injection, schedule: Q01DX009 (ip), vehicle: saline 101 % of control | [17] 97 % of control | [18] 99 % of control

CCOC(=O)c1cnc(NCCCNc2ncc(C(=O)OCC)c(=O)[nH]2)[nH]c1=O
inactive: dose: 6.25 mg/kg/injection, schedule: Q01DX005 (ip), vehicle: Klucel (hydroxypropylcellulose) (HPC) 92 % of control | dose: 12.5 mg/kg/injection, schedule: Q01DX005 (ip), vehicle: Klucel (hydroxypropylcellulose) (HPC) 101 % of control | [1] 104 % of control | [2] 105 % of control | [3] 106 % of control | [4] 88 % of control

O/N=C(/C=N/O)SCCSC(/C=N/O)=N/O
inactive: [2] 110 % of control | [3] 109 % of control | [4] 112 % of control

N#CC(C(=O)CCc1nc2ccccc2[nH]1)c1c(Cl)cccc1Cl (centres undefined)
inactive: [10] 109 % of control | [11] 101 % of control | [12] 102 % of control

O=C1CSC(c2ccc(F)cc2F)N1c1nncs1 (centres undefined)
inactive: [10] 92 % of control | [11] 91 % of control

NC(=O)Nc1ccc(/C=C\c2ccnc3ccccc23)cc1
inactive: dose: 25.0 mg/kg/injection, schedule: Q04DX003 (ip), vehicle: saline with Tween-80 96 % of control | dose: 50.0 mg/kg/injection, schedule: Q04DX003 (ip), vehicle: saline with Tween-80 93 % of control | dose: 100.0 mg/kg/injection, schedule: Q04DX003 (ip), vehicle: saline with Tween-80 89 % of control

O=C(O)c1c[nH]c2cc(OCc3ccccc3)ccc2c1=O
inactive: [17] 99 % of control | [18] 98 % of control | [19] 103 % of control

COC(=O)CCCC/C=C\CCCCCCC1C=CCC1 (centres undefined)
inactive: dose: 100.0 mg/kg/injection, schedule: Q01DX001 (ip), vehicle: saline 100 % of control | dose: 200.0 mg/kg/injection, schedule: Q01DX001 (ip), vehicle: saline 101 % of control | dose: 400.0 mg/kg/injection, schedule: Q01DX001 (ip), vehicle: saline 101 % of control

COc1ccc(N=Nc2c(C)nn(C(=O)c3ccncc3)c2C)cc1
inactive: [5] 108 % of control | [6] 99 % of control | [20] 101 % of control

C=C(C)C1CNC(C(=O)O)C1CC(=O)O (centres undefined)
inactive: dose: 6.25 mg/kg/injection, schedule: Q01DX009 (ip), vehicle: saline sonified 105 % of control | dose: 12.5 mg/kg/injection, schedule: Q01DX009 (ip), vehicle: saline sonified 90 % of control | dose: 25.0 mg/kg/injection, schedule: Q01DX009 (ip), vehicle: saline sonified 100 % of control

CN(C)P(=O)(N(C)C)N1CCCCCC1
inactive: [7] 102 % of control | [8] 106 % of control | [9] 94 % of control

COc1cc2c(cc1OC)C13CCN4CC5=CCOC6CC(=O)N2C1C6C5CC43 (centres undefined)
inactive: dose: 7.5 mg/kg/injection, schedule: Q01DX005 (ip), vehicle: saline with Tween-80 102 % of control | [21] 100 % of control | dose: 15.0 mg/kg/injection, schedule: Q01DX005 (ip), vehicle: saline with Tween-80 97 % of control | [22] 100 % of control | dose: 25.0 mg/kg/injection, schedule: Q04DX003 (ip), vehicle: saline sonified 100 % of control | dose: 30.0 mg/kg/injection, schedule: Q01DX005 (ip), vehicle: saline with Tween-80 100 % of control | [7] 100 % of control | dose: 50.0 mg/kg/injection, schedule: Q04DX003 (ip), vehicle: saline sonified 95 % of control | [10] 93 % of control

CCOC(=O)/C(C#N)=N/Nc1ccc(S(=O)(=O)NC(C)=O)cc1
inactive: [2] 96 % of control | [3] 92 % of control | [4] 96 % of control

CC1=NCc2nnn(Cc3ccccc3)c2N1
inactive: [5] 100 % of control | [6] 95 % of control | [20] 103 % of control

Cn1cc(-n2[nH]c(=O)n(-c3ccccc3)c2=O)c(=O)n(C)c1=O
inactive: [5] 101 % of control | [6] 101 % of control | [20] 96 % of control

CCn1c2ccccc2c2cc(N/C=C/C3=[N+](C)c4ccccc4C3(C)C)ccc21
inactive: dose: 1.56 mg/kg/injection, schedule: Q01DX009 (ip), vehicle: Klucel (hydroxypropylcellulose) (HPC) 107 % of control and 111 % of control | [13] 100 % of control and 114 % of control | [14] 116 % of control (2×) and 123 % of control | [15] 109 % of control | [16] 96 % of control

Cc1ccc(N=CN(C)C=Nc2ccc(C)cc2C)c(C)c1
inactive: dose: 50.0 mg/kg/injection, schedule: Q01DX009 (ip), vehicle: suspension in saline 104 % of control | dose: 100.0 mg/kg/injection, schedule: Q01DX009 (ip), vehicle: suspension in saline 113 % of control | dose: 200.0 mg/kg/injection, schedule: Q01DX009 (ip), vehicle: suspension in saline 107 % of control

C1N2CN3CN1CN(C2)C3 (tested in a mixture with another compound)
inactive: [17] 107 % of control | [18] 101 % of control | [19] 107 % of control

Nc1ccc(N=O)c(N)n1
inactive: dose: 0.78 mg/kg/injection, schedule: Q01DX009 (ip), vehicle: saline 98 % of control | dose: 1.56 mg/kg/injection, schedule: Q01DX009 (ip), vehicle: saline 86 % of control | dose: 6.25 mg/kg/injection, schedule: Q01DX009 (ip), vehicle: saline with Tween-80 107 % of control | [21] 98 % of control | dose: 12.5 mg/kg/injection, schedule: Q01DX009 (ip), vehicle: saline 98 % of control | [22] 100 % of control | [17] 106 % of control
